Data reported in publication PMC6882465, “Towards discovery of new leishmanicidal scaffolds able to inhibit Leishmania GSK-3” (Journal of Enzyme Inhibition and Medicinal Chemistry, 2019).
Like-named read-outs stand apart in the source and are kept apart here.

How the values were obtained:
[1] = test system: L. infantum promastigotes; test: Leishmanicidal assay on promastigotes (inhibition of MTT reduction); type: cell-based, Leishmania infantum; settings: Table S1; 72 h
Protocol: (§1) Leishmania parasites were resuspended with the corresponding drug concentration at 2 × 10^6 parasites/mL (final concentration) in their respective growth media in 96 microwell plates (200 µL/well). The parasites were allowed to growth for 72 h at 26 °C for promastigotes and 96 h at 32 °C for axenic amastigotes. Afterwards, inhibition of proliferation was measured by the inhibition of MTT reduction by the parasites. […] MTT reduction was allowed to proceed for 2 h at the respective temperature, and the resulting formazan solubilised by addition of 50 µL/well of 10% SDS. Afterwards, the plate was read at 595 nm in a BioRad Microplate-reader, model 680. Samples were made by triplicate and assays were repeated at least twice.

LdGSK-3 = LdGSK-3 (Leishmania donovani, UniProt A6N857); test: Inhibition of LdGSK-3 with Kinase Glo; type: biochemical; settings: for LdGSK-3 % inhibition: @10 µM; for % inhibition @ 10µM (initial screening on LdGSK3): Table S2; for IC50: read-out: LdGSK-3 IC50; for percentage of inhibition of LdGSK-3: assayed at 10 µM
Protocol: Assessment of inhibition of LdGSK-3 with Kinase Glo^TM
The reaction was allowed to proceed for 30 min at 30 °C, then it was incubated at room temperature for another 10 min after addition of Kinase Glo reagents (Promega, Ref. V6712). ATP consumption by LdGSK-3 was measured indirectly through end-point luminescence measurement of each well in a Varioskan Flash microplate reader (Thermo).

[2] = test system: L. pifanoi axenic amastigotes; test: Leishmanicidal assay on axenic amastigotes (inhibition of MTT reduction); type: cell-based, Leishmania pifanoi; settings: Table S1; 96 h; read-out: L. pifanoi amast. ax EC50
Protocol: as §1

hGSK-3β = hGSK-3β (Homo sapiens, UniProt P49841); test: hGSK-3β inhibition; type: biochemical
[3] = test system: peritoneal murine macrophages (PMM); test: Cytotoxicity on peritoneal murine macrophages (MTT); type: cell-based, Balb/c mice; settings: Table S1; 48 h
Protocol: Peritoneal murine macrophages were obtained from 8-week-old Balb/c mice previously elicited by i.p. injection with 1 mL of 10% thioglycollate medium three days prior to extraction. Macrophages were obtained by peritoneal washing (10 mL PBS, 4 °C). After extraction, macrophages were maintained in RPMI 1640-HIFCS at 37 °C and 5% CO2.
For peritoneal macrophages, the cells were seeded in 96 microwell plates at 1 × 10^5 cells/well and incubated (37 °C, 5% CO2) with the drug for 48 h. The toxicity was evaluated by the inhibition of MTT reduction as above.

hGSK-3β, sequence (P49841 whole entry): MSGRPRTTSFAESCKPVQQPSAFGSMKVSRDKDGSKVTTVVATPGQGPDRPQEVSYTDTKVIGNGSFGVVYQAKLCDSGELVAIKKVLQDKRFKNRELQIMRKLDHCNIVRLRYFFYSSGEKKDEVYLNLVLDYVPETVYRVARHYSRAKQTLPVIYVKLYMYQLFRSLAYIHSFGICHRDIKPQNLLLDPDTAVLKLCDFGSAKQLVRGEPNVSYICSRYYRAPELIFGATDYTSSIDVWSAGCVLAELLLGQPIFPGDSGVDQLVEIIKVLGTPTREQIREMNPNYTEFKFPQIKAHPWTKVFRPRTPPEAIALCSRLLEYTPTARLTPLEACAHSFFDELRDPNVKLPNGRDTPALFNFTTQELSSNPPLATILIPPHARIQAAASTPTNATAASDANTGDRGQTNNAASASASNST
LdGSK-3, sequence (A6N857 entry or part of it): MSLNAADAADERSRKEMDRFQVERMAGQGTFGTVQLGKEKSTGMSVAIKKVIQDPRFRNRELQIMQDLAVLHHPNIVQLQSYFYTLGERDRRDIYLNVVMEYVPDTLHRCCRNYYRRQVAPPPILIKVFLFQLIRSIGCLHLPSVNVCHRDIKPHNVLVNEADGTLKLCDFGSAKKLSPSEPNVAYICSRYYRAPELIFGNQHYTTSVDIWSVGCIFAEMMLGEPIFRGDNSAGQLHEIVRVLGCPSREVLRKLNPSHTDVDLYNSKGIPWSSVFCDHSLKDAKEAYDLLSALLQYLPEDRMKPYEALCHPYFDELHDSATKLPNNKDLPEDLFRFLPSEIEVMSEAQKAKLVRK

| % inhibition @ 10µM (initial screening on LdGSK3) (LdGSK-3) [%] | Structure (SMILES) | also measured |
| --- | --- | --- |
| – | COc1ccc(CNC(=O)Nc2nc(C)c(C(=O)C(Br)Br)s2)cc1 [Compound 20] | EC50 [1]: > 50 µM; LdGSK-3 % inhibition (LdGSK-3; Table S1): < 20%; EC50 [2]: > 50 µM; IC50 (hGSK-3β; Table S1, reference not given): 6.22 ± 0.2 µM |
| – | CCOC(=O)c1sc(NC(=O)CCc2cccc(Cl)c2)nc1C [Compound 21] | EC50 [1]: > 50 µM; LdGSK-3 % inhibition (LdGSK-3; Table S1): < 20%; EC50 [2]: > 50 µM; IC50 (hGSK-3β; Table S1, reference not given): 7.23 ± 0.26 µM |
| -0.35±2.35 | Cc1ccc(Nc2nc(C3CCCN3Cc3ccn[nH]3)cs2)nc1 (centres unmarked) [Compound 65] | – |
| 15.75±4.25 | O=C(Nc1cccc(S(=O)(=O)Nc2ccc(Br)cc2)c1)c1ccc([N+](=O)[O-])s1 [Compound 133] | – |
| – | O=C(CCl)c1cc(Br)c(Br)s1 [Compound 10] | EC50 [1]: 8.6 ± 0.3 µM; IC50 (LdGSK-3; Table S1): 3 ± 0.4 µM; EC50 [3]: 7.9 ± 0.6 µM; EC50 [2]: 1.2 ± 0.2 µM |
| 1.55±0.55 | O=C(Nc1nc(-c2ccccn2)cs1)N1C[C@H]2C[C@@]2(c2ccccc2)C1 [Compound 47] | – |
| 3.10±0.70 | O=C(c1ccc(Cl)cc1)c1ccc(OC(=O)N2CCOCC2)cc1 [Compound 163] | – |
| 20.95±1.30 | COc1ccc2ncc(=O)n(CCN3CCC(NCc4ccc(-c5cccs5)cc4)CC3)c2n1 [Compound 200] | – |
| 4.25±2.30 | Br.Fc1ccc(Nc2nc(-c3ccccn3)cs2)cc1 [Compound 171] | – |
| -3.05±0.35 | Cc1cc(N2CCc3ccccc3C2)nc(Nc2ccc(S(=O)(=O)N3CCOCC3)cc2)n1.Cl [Compound 73] | – |
| -2.35±1.95 | CCc1cc(C(=O)Nc2nccn2-c2ccccc2)cs1 [Compound 93] | – |
| 13.50±3.10 | c1ccc(Nc2nc3ccccc3[nH]2)nc1 [Compound 40] | – |
| 9.10±1.75 | Cc1nn(-c2ccccc2)nc1CNC(=O)CN(Cc1ccccn1)Cc1ccccn1.O=C(O)C(F)(F)F [Compound 144] | – |
| 28.65±1.95 | O=C(CCc1ccc(-c2ccccc2)o1)N1CCN(c2ccc(O)cc2)CC1 [Compound 178] | – |
| 2.85±0.45 | Cc1cn[nH]c1C1CCCN(Cc2nc3ccccc3n2C)C1 (centres unmarked) [Compound 114] | – |
| 4.90±1.45 | CCOc1ccc(CN(C)Cc2nc(N)nc(Nc3ccc(C)cc3)n2)cc1 [Compound 78] | – |
| 12.15±3.90 | O=C(Cc1ccc2c(c1)CCC2)Nc1n[nH]c(-c2ccccn2)n1 [Compound 123] | – |
| 70.59±3.12 | Cc1ccc(S(C)(=O)=O)cc1Nc1nccc(-c2sc(N)nc2-c2ccccc2)n1 [Compound 124] | IC50 (LdGSK-3; Table 2): 6 µM; percentage of inhibition of LdGSK-3 (LdGSK-3): higher than 50%; IC50 (hGSK-3β; Table 2): 0.81 ± 0.34 µM |
| -2.80±6.35 | Cc1cc(C)n(-c2nc(NC(C)(C)C)nc(N3CCOCC3)n2)n1 [Compound 196] | – |
| -0.05±0.95 | c1ccc(-c2nc(NCc3ccco3)c3ccccc3n2)nc1 [Compound 87] | – |
| -2.00±2.70 | c1ccc(Nc2nc(-c3ccccn3)cc(N3CCOCC3)n2)cc1 [Compound 34] | – |
| 2.00±1.95 | COc1ccc(-c2cnc(NC(=O)c3ccc(F)cc3)n2C)cc1 [Compound 88] | – |
| 74.63±1.76 | CN(C)S(=O)(=O)c1ccc(-c2cnc(N)c(-c3nc4ccc(F)cc4[nH]3)c2)cc1 [Compound 71] | IC50 (LdGSK-3; Table 2): 3.6 µM; percentage of inhibition of LdGSK-3 (LdGSK-3): higher than 50%; IC50 (hGSK-3β; Table 2): 1.23 ± 0.14 µM |
| 8.50±1.10 | O=C(CCCNC(=O)c1ccc(Cl)cc1)Nc1nc(-c2ccccn2)cs1 [Compound 98] | – |
| 9.35±1.30 | Cc1ccc(NC(C)C(=O)Nc2ccc(C#N)cc2)cc1S(=O)(=O)N1CCCCC1 (centres unmarked) [Compound 137] | – |
| 7.05±1.35 | O=C(Nc1nc(-c2ccccn2)cs1)c1ccc(S(=O)(=O)N2CCCCC2)cc1 [Compound 116] | – |
| 2.50±1.45 | O=C(CN(Cc1ccccn1)Cc1ccccn1)NCc1ccc(-c2csnn2)cc1.O=C(O)C(F)(F)F [Compound 154] | – |
| 3.75±2.40 | O=C(CN(Cc1ccccn1)Cc1ccccn1)NC1Cc2ccccc2C1.O=C(O)C(F)(F)F [Compound 58] | – |
| – | O=C(CCl)c1ccc(Cl)cc1 [Compound 7] | EC50 [1]: 6.6 ± 0.5 µM; IC50 (LdGSK-3; Table S1): 7.5 ± 1.4 µM; EC50 [3]: 7.3 ± 1 µM; EC50 [2]: 0.5 ± 0.1 µM |
